Where a SMILES comes first, the peptide text is derived from it. The star is where a group is joined. Cbz = O=C(OCc1ccccc1)*
Tests used:
[1] = tested on: mutant R77C α-sarcoglycan; test: Quadritransfected cell model: membrane targeting of mutant R77C α-sarcoglycan, immunohistochemical labelling; type: cell-based, human
Method: (§1) A second aspect of the invention relates to the assay used for in vitro assessment of the efficacy of inhibitors of the endoplasmic reticulum associated degradation (ERAD) pathway, used for the treatment of sarcoglycanopathies. This assay consists of the following steps: • co-transfection of cells with the four sarcoglycan genes (γ-, α-, β- and δ-), of which one carries the mutation to be tested; • incubation for several hours in the presence of the inhibitor; • localisation of the sarcoglycan complex.
(§2) Cross-sections were dried, then rehydrated in PBS or fixed cells were treated for 20 min with 1% triton in PBS, then incubated for 30 min at room temperature (RT) in PBS containing 15% foetal calf serum. Cross-sections were incubated with polyclonal anti-sarcoglycan antibodies (α-sarcoglycan: dilution 1/1000, targeting amino acids 366-379 of human α-sarcoglycan; β-sarcoglycan: dilution 1/20, NCL-b-SARC (Novocastra); γ-sarcoglycan: dilution 1/20, NCL-g-SARC (Novocastra); dystrophin: dilution 1/20, NCL-DYS2 (Novocastra); and calreticulin: dilution 1/70, ab4109 (Abcam)) for 1 to 2 hours at RT then rinsed 3 times in PBS. […] Cross-sections were then rinsed three times in PBS, mounted with fluoromount-G (Southern Biotech 0100-01) and then observed with a confocal microscope (Leica). Immunohistochemical analysis of human biopsy specimens was performed as described in Hackman et al. (9).
NIH3T3 or 911 cells were grown in Dulbecco's Modified Eagle Medium supplemented with glutamine, gentamicin and 10% foetal calf serum. Cells were transfected using […] Fugene (ROCHE) per 1 μg plasmid. 0.5 μg of each plasmid (α-SG or α-SG-R77C and β-SG, γ-SG, δ-SG) was used per well in 6-well dishes. For treatment by inhibitors, 43 hours after transfection cells were incubated for 5 hours with either the mannosidase inhibitor (kifunensin 5 μM, VWR) or the proteasome inhibitor (MG132 5 μM diluted in DMSO, Sigma). Cells were then rinsed in PBS and fixed with 3.7% formaldehyde in PBS for 15 min at RT, and rinsed three more times in PBS before immunohistochemical labelling. […]

[2] = tested on: mutant α-sarcoglycan in Sgca−/− muscle; test: Intramuscular inhibitor in Sgca−/− mice injected with AAV-SGCA77C vector: α-sarcoglycan labelling of muscle; type: in vivo, mouse; settings: AAV-SGCA77C in tibialis anterior, 10 μM kifunensin intramuscular over one week, FIG. 11
Method: as §2
The rAAV2/1 viral preparations were injected (10^10 viral genomes (vg) in 30 μl total volume) in the left tibialis anterior muscle of Sgca−/− mice. On days 20, 22, 25 and 27 after injection, 10 μM kifunensin or 20 μM MG132 were injected into the muscle (i.e. either twice or 4 times the concentrations used in vitro to take into account diffusion within the muscle). One day prior to sacrifice (day 27), mice were injected intraperitoneally with Evans blue dye. […]

[3] = cited from earlier work
[4] = tested on: mutant E262K δ-sarcoglycan; test: Quadritransfected cell model: immunohistochemical labelling of mutant E262K δ-sarcoglycan; type: cell-based, human; settings: dMJ 5 or 100; FIG. 12B
Method: as §1
B/Immunohistochemical labelling of δ-sarcoglycan in cells quadritransfected with the three α-, β- and γ-sarcoglycans and mutant E262K δ-sarcoglycan with or without 1-deoxymannojirimycin (dMJ) 5 or 100
FIG. 13: A/Immunohistochemical labelling of δ-sarcoglycan in cells quadritransfected with the three α-, β- and γ-sarcoglycans and mutant E262K δ-sarcoglycan with or without kifunensin 5 μM.
(§3) Cross-sections were dried, then rehydrated in PBS or fixed cells were treated for 20 min with 1% triton in PBS, then incubated for 30 min at room temperature (RT) in PBS containing 15% foetal calf serum. […]

[5] = tested on: mutant Q11E β-sarcoglycan; test: Quadritransfected cell model: immunohistochemical labelling of mutant Q11E β-sarcoglycan; type: cell-based, human; settings: dMJ 5, 50 or 100 μM; FIG. 12C
Method: as §1
C/Immunohistochemical labelling of β-sarcoglycan in cells quadritransfected with the three α-, γ- and δ-sarcoglycans and mutant Q11E β-sarcoglycan with or without 1-deoxymannojirimycin (dMJ) 5, 50 or 100 μM.
B/Immunohistochemical labelling of β-sarcoglycan in cells quadritransfected with the three α-, γ- and δ-sarcoglycans and mutant Q11E β-sarcoglycan with or without kifunensin 5 μM.
as §3

Q: Which “membrane targeting of mutant α-sarcoglycan (R77C)” value ([1]; MG132 5 μM, 5 hours, 43 hours after transfection, NIH3T3 or 911 cells, FIG. 9) does the source give for CC(C)C[C@@H](C=O)NC(=O)[C@H](CC(C)C)NC(=O)[C@H](CC(C)C)NC(=O)OCc1ccccc1 [MG132] (Cbz-Leu-Leu-Leu-aldehyde) here?
A: restored membrane targeting

Q: Which results are given for O=C1N[C@@H]2[C@@H](O)[C@@H](O)[C@H](O)[C@@H](CO)N2C1=O [kifunensin, Kifunensin]?
A: membrane targeting of mutant α-sarcoglycan (R77C) ([1]; kifunensin 5 μM, 5 hours, 43 hours after transfection, NIH3T3 or 911 cells, FIG. 10): restore membrane targeting; intracellular α-sarcoglycan aggregates in muscle [2]: absence of aggregates; water solubility [3]: water-soluble

Q: For OC[C@H]1NC[C@@H](O)[C@@H](O)[C@@H]1O [1-deoxymannojirimycin], which “membrane targeting of mutant α-sarcoglycan (R77C)” value ([1]; 100 μM 1-deoxymannojirimycin, FIG. 12A) is on record?
A: efficacy of this substance for restoring membrane targeting

Q: And the “restoration for mutation E262K on sub-unit δ” value [4]?
A: confirmed our working hypothesis

Q: And the “restoration for mutation Q11E on sub-unit β” value [5]?
A: confirmed our working hypothesis

— patent US8673935B2, “Drugs for the treatment of sarcogylcanopathies” (Genethon, priority 2006, dated 2014)
